The target in one test is Neprilysin (Homo sapiens, UniProt P08473). The experiment in a line: Compound was evaluated for inhibition of recombinant human neprilysin(NEP).
In test [1] the target is T1, Angiotensin-converting enzyme (Rattus norvegicus, UniProt P47820).
T1 sequence (P47820 whole entry): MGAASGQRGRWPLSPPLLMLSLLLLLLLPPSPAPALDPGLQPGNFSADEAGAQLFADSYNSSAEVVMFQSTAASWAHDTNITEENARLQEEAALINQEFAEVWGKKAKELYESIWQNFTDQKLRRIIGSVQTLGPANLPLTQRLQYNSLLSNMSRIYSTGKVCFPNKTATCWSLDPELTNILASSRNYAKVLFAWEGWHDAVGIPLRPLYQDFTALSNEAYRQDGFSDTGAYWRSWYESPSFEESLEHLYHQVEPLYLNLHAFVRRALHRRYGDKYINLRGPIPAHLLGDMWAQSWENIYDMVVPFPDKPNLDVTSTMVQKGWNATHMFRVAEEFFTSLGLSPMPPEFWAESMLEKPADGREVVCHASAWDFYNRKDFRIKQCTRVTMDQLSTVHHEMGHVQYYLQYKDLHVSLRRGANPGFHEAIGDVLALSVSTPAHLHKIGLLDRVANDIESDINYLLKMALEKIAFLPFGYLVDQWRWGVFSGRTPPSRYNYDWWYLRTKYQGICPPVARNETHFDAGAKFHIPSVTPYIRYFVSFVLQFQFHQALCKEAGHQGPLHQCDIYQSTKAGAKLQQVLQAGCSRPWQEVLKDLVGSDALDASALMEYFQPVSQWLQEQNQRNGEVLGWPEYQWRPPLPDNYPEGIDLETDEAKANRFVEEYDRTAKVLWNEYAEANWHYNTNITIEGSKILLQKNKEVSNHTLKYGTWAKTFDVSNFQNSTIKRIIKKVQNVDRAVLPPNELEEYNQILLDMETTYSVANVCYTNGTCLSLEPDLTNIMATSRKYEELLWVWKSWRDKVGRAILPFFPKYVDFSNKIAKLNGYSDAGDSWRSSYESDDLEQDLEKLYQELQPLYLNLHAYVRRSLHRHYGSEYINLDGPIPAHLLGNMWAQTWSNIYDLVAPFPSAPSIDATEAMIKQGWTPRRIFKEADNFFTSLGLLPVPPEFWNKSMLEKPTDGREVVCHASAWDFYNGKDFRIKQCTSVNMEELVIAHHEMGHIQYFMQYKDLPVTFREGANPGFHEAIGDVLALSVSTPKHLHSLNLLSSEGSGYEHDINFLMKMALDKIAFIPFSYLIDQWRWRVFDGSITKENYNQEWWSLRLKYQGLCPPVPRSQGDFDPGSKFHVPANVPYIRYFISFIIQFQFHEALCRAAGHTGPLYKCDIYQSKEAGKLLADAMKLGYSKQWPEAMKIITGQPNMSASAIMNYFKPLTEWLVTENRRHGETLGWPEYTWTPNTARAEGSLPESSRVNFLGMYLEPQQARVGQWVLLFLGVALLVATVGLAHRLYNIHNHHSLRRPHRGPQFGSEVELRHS
The experiment in a line: Compound was measured for the inhibition of Angiotensin I converting enzyme.

Each structure is given as a SMILES string.

Neprilysin, sequence (P08473 whole entry): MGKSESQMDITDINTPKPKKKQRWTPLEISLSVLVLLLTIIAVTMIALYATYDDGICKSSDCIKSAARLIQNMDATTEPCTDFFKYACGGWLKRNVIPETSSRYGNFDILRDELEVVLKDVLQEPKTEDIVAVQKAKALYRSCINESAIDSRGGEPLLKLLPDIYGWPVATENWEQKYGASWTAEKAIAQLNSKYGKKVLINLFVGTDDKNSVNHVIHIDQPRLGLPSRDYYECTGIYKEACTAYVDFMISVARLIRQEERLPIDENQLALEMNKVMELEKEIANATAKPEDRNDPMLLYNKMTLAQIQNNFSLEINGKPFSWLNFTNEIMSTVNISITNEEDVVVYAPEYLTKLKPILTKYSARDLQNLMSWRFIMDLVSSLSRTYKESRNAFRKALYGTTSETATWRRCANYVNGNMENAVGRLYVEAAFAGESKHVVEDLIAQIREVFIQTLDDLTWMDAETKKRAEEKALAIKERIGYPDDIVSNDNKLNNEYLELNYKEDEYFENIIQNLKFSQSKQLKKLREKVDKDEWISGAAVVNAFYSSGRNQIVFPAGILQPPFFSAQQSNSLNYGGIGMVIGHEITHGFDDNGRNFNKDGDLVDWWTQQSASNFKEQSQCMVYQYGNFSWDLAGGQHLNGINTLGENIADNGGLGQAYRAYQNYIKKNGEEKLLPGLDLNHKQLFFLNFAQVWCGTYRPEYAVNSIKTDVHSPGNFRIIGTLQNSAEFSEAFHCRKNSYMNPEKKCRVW

The Ki is a dissociation constant, usually derived from enzyme kinetics or from competition with a known ligand. Take `O=C(O)CNC(=O)C(CS)(Cc1ccccc1)Cc1ccccc1`: the Ki at Neprilysin was over 100 nM. For the compound `O=C(O)CNC(=O)/C(=C/c1ccccc1)CS`, at Neprilysin, the Ki is 408 nM.

On to `O=C(O)CNC(=O)/C(=C\c1ccccc1)CS`, for which the Ki in test [1] stood at 380 nM; at Neprilysin, 4.9 nM. `O=C(O)CNC(=O)C1(CS)Cc2ccccc2C1`: at Neprilysin, the Ki amounted to 162 nM.

Values taken from ChEMBL document CHEMBL1129196, “Studies on the structural feature of S'1 subsite of neprilysin (EC.3.4.24.11): Stereochemical requirement for the enzyme-inhibitor docking process” (Bioorg Med Chem Lett, 1996).
